Assay results: patent US20240279228A1, “NOVEL SALTS AND CRYSTALS” (INTRA-CELLULAR THERAPIES, INC., priority 2021, published 2024)
Counter-ions that a name gives are not always drawn. Like-named read-outs stand apart in the source and are kept apart here. One block for each compound: values may come before it.

Key:
[1] = Colour and chemical stability of the solid salt in air; format: physicochemical; details: for Colorization: tosylate salt product of process experiment
[2] = Solubility of Compound A free base in solvents; format: physicochemical
[3] = Hygroscopicity of Compound A free base; format: physicochemical
[4] = Decomposition of salt crystals by NMR; format: physicochemical; details: crystals from salt screening
Protocol: Further experiments are performed using some of the successful acid/solvent/method conditions from Example 1, with variations in the solvent volume and/or material concentrations and/or changes to the molar ratio of Compound A free base to acid (1:1.2, 1:1.5 or 1:2). Some experiments are further repeated at a 500 mg scale for confirmation of the results, including additional analysis, including 1H-NMR, DSC/TGA, and/or FTIR.

[5] = Solubility of the salts in water; format: physicochemical; details: salt
[6] = solid tosylate salt of WO2020/131895, on standing; cited from earlier work

Structure (SMILES): O=C1CN2c3c(cccc3[C@@H]3CN(CCCOc4ccc(F)cc4)CC[C@@H]32)N1 [Compound 3-2]
Colorization [1]: Yes

Structure (SMILES): O=C1CN2c3c(cccc3[C@@H]3CN(CCCOc4ccc(F)cc4)CC[C@@H]32)N1 [Compound A, (6bR,10aS)-8-(3-(4-fluorophenoxy)propyl)-6b,7,8,9,10,10a-hexahydro-1H-pyrido[3′,4′:4,5]pyrrolo[1,2,3-de]quinoxalin-2(3H)-one]
Solubility (general) ([2]; free base form): very poor solubility
Solubility in DMSO ([2]; free base, DMSO): freely soluble
Solubility in anisole ([2]; free base, anisole): sparingly soluble
Solubility in ethyl salicylate ([2]; free base, ethyl salicylate): sparingly soluble
Solubility in most organic solvents and water ([2]; free base, most organic solvents and water): less than sparingly soluble
solubility ([2]; free base, water, read-out: Solubility in water): < 11 mg/mL
solubility ([2]; organic solvent or mixture, free base, 2-butanol, read-out: Solubility in 2-butanol): < 11 mg/mL
solubility ([2]; organic solvent or mixture, free base, cyclohexane, read-out: Solubility in cyclohexane): < 11 mg/mL
solubility ([2]; organic solvent or mixture, free base, ethyl acetate, read-out: Solubility in ethyl acetate): < 11 mg/mL
solubility ([2]; organic solvent or mixture, free base, heptane, read-out: Solubility in heptane): < 11 mg/mL
solubility ([2]; organic solvent or mixture, free base, methanol, read-out: Solubility in methanol): < 11 mg/mL
Hygroscopicity [3]: slightly hygroscopic

Structure (SMILES): O=C1CN2c3c(cccc3[C@@H]3CN(CCCOc4ccc(F)cc4)CC[C@@H]32)N1 [Example 3]
Colour change of the powder ([1]; at room temperature): slowly turns purple

Structure (SMILES): O=C1CN2c3c(cccc3[C@@H]3CN(CCCOc4ccc(F)cc4)CC[C@@H]32)N1 [hydrochloride crystals]
Decomposition by NMR [4]: show decomposition

Structure (SMILES): O=C1CN2c3c(cccc3[C@@H]3CN(CCCOc4ccc(F)cc4)CC[C@@H]32)N1 [oxalate salt]
Solubility in water [5]: 0.2 to 0.3 mg/mL

Structure (SMILES): O=C1CN2c3c(cccc3[C@@H]3CN(CCCOc4ccc(F)cc4)CC[C@@H]32)N1 [tosylate salt]
Solubility in water [5]: 1.2 to 1.7 mg/mL
Discoloration on standing [6]: discolors on standing

The remaining lines, values ahead:

Colorization [1]: No
Structure (SMILES): O=C1CN2c3c(cccc3[C@@H]3CN(CCCOc4ccc(F)cc4)CC[C@@H]32)N1 [Compound 5-1]

Colorization [1]: No
Structure (SMILES): O=C1CN2c3c(cccc3[C@@H]3CN(CCCOc4ccc(F)cc4)CC[C@@H]32)N1 [Compound 5-2]

Colorization [1]: No
Structure (SMILES): O=C1CN2c3c(cccc3[C@@H]3CN(CCCOc4ccc(F)cc4)CC[C@@H]32)N1 [Compound 5-3]

Colorization [1]: No
Structure (SMILES): O=C1CN2c3c(cccc3[C@@H]3CN(CCCOc4ccc(F)cc4)CC[C@@H]32)N1 [Compound 5-4]

Colorization [1]: Slight
Structure (SMILES): O=C1CN2c3c(cccc3[C@@H]3CN(CCCOc4ccc(F)cc4)CC[C@@H]32)N1 [Compound 5-5]
